Test results from patent publication US20230382924A1, “MODULATORS OF CYSTIC FIBROSIS TRANSMEMBRANE CONDUCTANCE REGULATOR” (VERTEX PHARMACEUTICALS INCORPORATED, priority 2020, published 2023).
Several values for one entry are separate records, joined by “and”; a condition that tells them apart may be missing. Identical values can stand only once. Like-named read-outs stand apart in the source and are kept apart here.

Tests used:
F508del = biological target: T1, F508del (Homo sapiens, UniProt P13569, DEL508-508); test: 3T3 assay: membrane potential optical assay for F508del correction in NIH 3T3 cells; assay type: cell-based; conditions: for Emax: NIH3T3
T1 construct: expressed in transfected cells
T1 sequence (P13569 with tags, fused parts or gaps DEL508-508): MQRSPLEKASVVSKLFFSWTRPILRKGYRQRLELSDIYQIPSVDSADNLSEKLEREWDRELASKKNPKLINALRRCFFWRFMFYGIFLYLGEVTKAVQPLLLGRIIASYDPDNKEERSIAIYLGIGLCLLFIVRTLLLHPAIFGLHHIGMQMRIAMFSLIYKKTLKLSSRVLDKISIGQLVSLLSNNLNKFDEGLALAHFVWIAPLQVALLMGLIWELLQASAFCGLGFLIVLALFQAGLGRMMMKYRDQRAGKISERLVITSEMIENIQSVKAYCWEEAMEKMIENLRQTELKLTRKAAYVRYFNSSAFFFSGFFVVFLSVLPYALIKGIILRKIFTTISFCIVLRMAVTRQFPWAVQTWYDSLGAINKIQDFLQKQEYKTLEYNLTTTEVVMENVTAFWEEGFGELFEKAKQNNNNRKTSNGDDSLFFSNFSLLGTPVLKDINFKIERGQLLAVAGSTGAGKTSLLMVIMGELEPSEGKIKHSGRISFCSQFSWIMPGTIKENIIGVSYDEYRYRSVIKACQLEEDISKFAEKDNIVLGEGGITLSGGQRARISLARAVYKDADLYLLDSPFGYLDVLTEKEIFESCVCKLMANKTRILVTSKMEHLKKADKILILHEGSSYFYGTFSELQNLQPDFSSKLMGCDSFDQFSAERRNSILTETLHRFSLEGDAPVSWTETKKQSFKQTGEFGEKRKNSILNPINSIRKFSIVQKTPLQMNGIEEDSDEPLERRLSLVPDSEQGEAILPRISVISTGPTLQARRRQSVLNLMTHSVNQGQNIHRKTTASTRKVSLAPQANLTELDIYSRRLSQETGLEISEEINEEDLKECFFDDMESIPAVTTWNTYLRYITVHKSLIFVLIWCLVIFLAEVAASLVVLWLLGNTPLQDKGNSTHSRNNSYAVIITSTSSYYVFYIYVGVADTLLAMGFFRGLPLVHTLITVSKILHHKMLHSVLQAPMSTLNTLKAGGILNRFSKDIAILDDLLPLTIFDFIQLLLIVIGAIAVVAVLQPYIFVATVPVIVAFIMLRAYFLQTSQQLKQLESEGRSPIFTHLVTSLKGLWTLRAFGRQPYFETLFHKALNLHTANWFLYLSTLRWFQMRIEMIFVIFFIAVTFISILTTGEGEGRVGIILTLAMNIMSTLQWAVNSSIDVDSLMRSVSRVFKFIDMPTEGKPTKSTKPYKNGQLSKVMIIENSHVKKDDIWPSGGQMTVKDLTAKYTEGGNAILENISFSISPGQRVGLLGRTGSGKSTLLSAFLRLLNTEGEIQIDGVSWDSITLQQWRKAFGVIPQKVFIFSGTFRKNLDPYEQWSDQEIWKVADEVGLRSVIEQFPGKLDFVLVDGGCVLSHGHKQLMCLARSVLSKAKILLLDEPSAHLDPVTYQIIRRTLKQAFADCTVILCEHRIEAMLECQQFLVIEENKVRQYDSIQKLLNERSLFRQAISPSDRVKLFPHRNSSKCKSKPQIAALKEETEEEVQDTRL
Text: 1. Membrane Potential Optical Methods for Assaying F508del Modulation Properties of Compounds
The assay utilizes fluorescent voltage sensing dyes to measure changes in membrane potential using a fluorescent plate reader (e.g., FLIPR III, Molecular Devices, Inc.) as a readout for increase in functional F508del in NIH 3T3 cells. The driving force for the response is the creation of a chloride ion gradient in conjunction with channel activation by a single liquid addition step after the cells have previously been treated with compounds and subsequently loaded with a voltage sensing dye.
2. Identification of Corrector Compounds
To identify correctors of F508del, a single-addition HTS assay format was developed. This HTS assay utilizes fluorescent voltage sensing dyes to measure changes in membrane potential on the FLIPR III as a measurement for increase in gating (conductance) of F508del in F508del NIH 3T3 cells. The F508del NIH 3T3 cell cultures were incubated with the corrector compounds at a range of concentrations for 18-24 hours at 37° C., and subsequently loaded with a redistribution dye. The driving force for the response is a Cl^− ion gradient in conjunction with channel activation with forskolin in a single liquid addition step using a fluorescent plate reader such as FLIPR III.
Bath Solution #1: (in mM) NaCl 160, KCl 4.5, CaCl2) 2, MgCl2 1, HEPES 10, pH 7.4 with NaOH.
Chloride-free bath solution: Chloride salts in Bath Solution #1 (above) are substituted with gluconate salts.
NIH3T3 mouse fibroblasts stably expressing F508del are used for optical measurements of membrane potential. The cells are maintained at 37° C. in 5% CO2 and 90% humidity in Dulbecco's modified Eagle's medium supplemented with 2 mM glutamine, 10% fetal bovine serum, 1×NEAA, b-ME, 1×pen/strep, and 25 mM HEPES in 175 cm^2 culture flasks. For all optical assays, the cells were seeded at ˜20,000/well in 384-well matrigel-coated plates. For the correction assays, the cells are cultured at 37° C. with and without compounds for 16-24 hours.

CFTR [1] = biological target: T2, CFTR (Homo sapiens, UniProt P13569); test: Membrane Potential Dye, Enteroid Assay A; assay type: cell-based; conditions: for EC50: read-out: Ent. A EC50
T2 sequence (P13569 with tags, fused parts or gaps DEL508-508): as above
How it was run: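 Enteroid cells were loaded with methyl oxonol membrane potential dye (plus CaCCinh-A01 and Chicago Sky Blue) for 25 min at room temperature. Chloride transport was started by switching to chloride-free gluconate stimulation solution, with fluorescence read for 15 min. Activity was expressed as % of a triple-combination CFTR modulator control (3 μM, 3 μM, 300 nM acute).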

CFTR [2] = biological target: T2, CFTR; test: Membrane Potential Dye, Enteroid Assay B; assay type: cell-based; conditions: for EC50: read-out: Ent. B EC50
How it was run: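 Enteroid cells loaded 25 min at room temperature with 20 μM methyl oxonol plus 30 μM CaCCinh-A01 and 30 μM Chicago Sky Blue, then switched to chloride-free gluconate buffer. Chloride transport was started by chloride-free stimulation solution, with fluorescence read for 15 min.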

[3] = Table 8, read-out: 3T3 Max Activity
[4] = NIH 3T3 cells, F508del correction

Compound: Cc1cccc(C)c1-c1cc2nc(n1)NS(=O)(=O)c1cccc(c1)C(=O)NC[C@H](C)O2 [Compound 27, (10S)-6-(2,6-Dimethylphenyl)-10-methyl-2,2-dioxo-9-oxa-2λ^6-thia-3,5,12,19-tetrazatricyclo[12.3.1.14,8]nonadeca-1(18),4(19),5,7,14,16-hexaen-13-one]
- ring closure, yield after HPLC (from Cc1cccc(C)c1-c1cc(O[C@@H](C)CN)nc(NS(=O)(=O)c2cccc(C(=O)O)c2)n1, amide bond, 13-membered ring, HATU/DIEA, DMF, 25.0 °C, 1.0 h, 2 steps): 55%

Compound: Cc1cccc(C)c1-c1cc2nc(n1)NS(=O)(=O)c1cccc(c1)C(=O)NC[C@H](CO[Si](c1ccccc1)(c1ccccc1)C(C)(C)C)O2
- ring closure, yield after HPLC (from Cc1cccc(C)c1-c1cc(O[C@H](CN)CO[Si](c2ccccc2)(c2ccccc2)C(C)(C)C)nc(NS(=O)(=O)c2cccc(C(=O)O)c2)n1, amide bond, 13-membered ring, HATU/DIEA, DMF, 30.8 mM, 25.0 °C, 1.0 h, 2 steps): 98%

Compound: Cc1cccc(C)c1-c1cc2nc(n1)NS(=O)(=O)c1cccc(c1)C(=O)N[C@H](CC(C)C)C(c1ccc(C(C)(C)C)cc1)O2 (some centres unmarked)
- ring closure, yield after HPLC (from Cc1cccc(C)c1-c1cc(OC(c2ccc(C(C)(C)C)cc2)[C@H](N)CC(C)C)nc(NS(=O)(=O)c2cccc(C(=O)O)c2)n1, amide bond, 13-membered ring, HATU/NaOtBu, DMF/THF, 69.4 mM, 25.0 °C, 2.0 h, 2 steps): 21% and 15%

Compound: Cc1cccc(C)c1-c1cc2nc(n1)NS(=O)(=O)c1ccnc(c1)C(=O)N[C@H](CC1CCCCC1)CO2 [Compound 142]
- Emax (F508del; [3]): > 60%
- EC50 (F508del; Table 8): < 1000 nM
- Ent. A Max Activity (CFTR [1]; Table 8): +++ (+++ is >60%)
- EC50 (CFTR [1]; Table 8): 1000 to 3000 nM
- Ent. B Max Activity (CFTR [2]; Table 8): ++ (++ is 306%)
- EC50 (CFTR [2]; Table 8): < 1000 nM

Compound: Cc1cccc(C)c1-c1cc2nc(n1)NS(=O)(=O)c1cccc(c1)C(=O)N[C@H](CC1CCCCC1)CO2 [Compound 365]
- EC50 (F508del; [4]): < 1000 nM
- Ent. A Max Activity (CFTR [1]; Enteroid Assay A): +++ (+++ is >600%)
- EC50 (CFTR [1]; Enteroid Assay A): < 1000 nM
- EC50 (CFTR [2]; Enteroid Assay B): < 1000 nM

Compound: Cc1cccc(C)c1-c1cc2nc(n1)NS(=O)(=O)c1cccc(c1)C(=O)N[C@H](CC(C)(C)C)CO2 [Compound 97, (11R)-6-(2,6-dimethylphenyl)-11-(2,2-dimethylpropyl)-2,2-dioxo-9-oxa-2λ^6-thia-3,5,12,19-tetrazatricyclo[12.3.1.14,8]nonadeca-1(18),4(19),5,7,14,16-hexaen-13-one]
- EC50 (F508del; [4]): < 1000 nM
- Ent. A Max Activity (CFTR [1]; Enteroid Assay A): +++ (+++ is >600%)
- EC50 (CFTR [1]; Enteroid Assay A): < 1000 nM
- EC50 (CFTR [2]; Enteroid Assay B): < 1000 nM

Compound: Cc1cccc(C)c1-c1cc2nc(n1)NS(=O)(=O)c1cccc(c1)C(=O)NC1CC(CN(CCC(C)(C)C)C1)O2 (centres unmarked)
- ring closure, yield after HPLC (from Cc1cccc(C)c1-c1cc(Cl)nc(NS(=O)(=O)c2cccc(C(=O)NC3CC(O)CN(CCC(C)(C)C)C3)c2)n1, snar bond, 14-membered ring, NaH, NMP, 5.8 mM, 70.0 °C, 2.0 h, 2 steps): 2%
- ring closure, yield after HPLC (from Cc1cccc(C)c1-c1cc(Cl)nc(NS(=O)(=O)c2cccc(C(=O)NC3CC(O)CN(CCC(C)(C)C)C3)c2)n1, snar bond, 14-membered ring, NaH, NMP, 9.2 mM, 70.0 °C, 2.0 h, 2 steps): 3%

Compound: Cc1cccc(C)c1-c1cc2nc(n1)NS(=O)(=O)c1cccc(c1)C(=O)NCC(c1ccc(C3CCC3)cc1)O2 (centres unmarked)
- ring closure, yield after HPLC (from Cc1cccc(C)c1-c1cc(OC(CN)c2ccc(C3CCC3)cc2)nc(NS(=O)(=O)c2cccc(C(=O)O)c2)n1, amide bond, 13-membered ring, HATU/DIEA, DMF, 189.0 mM, 25.0 °C, 0.5 h): 1%

Compound: Cc1cccc(C)c1-c1cc2nc(n1)NS(=O)(=O)c1cccc(c1)C(=O)NCC(c1ccc([Si](C)(C)C)cc1)O2 (centres unmarked)
- ring closure, yield after HPLC (from Cc1cccc(C)c1-c1cc(OC(CN)c2ccc([Si](C)(C)C)cc2)nc(NS(=O)(=O)c2cccc(C(=O)O)c2)n1, amide bond, 13-membered ring, HATU/DIEA, DMF, 55.1 mM, 25.0 °C, 0.5 h): 23%

Compound: Cc1cccc(C)c1-c1cc2nc(n1)NS(=O)(=O)c1cccc(c1)C(=O)N[C@H](CC(C)C)C(C1CC1)O2 (stereo in doubt) [Compound 239]
- Emax (F508del; [3]): > 60%
- EC50 (F508del; Table 8): < 1000 nM
- Ent. A Max Activity (CFTR [1]; Table 8): +++ (+++ is >60%)
- EC50 (CFTR [1]; Table 8): < 1000 nM

Compound: Cc1cccc(C)c1-c1cc2nc(n1)NS(=O)(=O)c1cccc(c1)C(=O)NC[C@@H](c1ccc(C(F)(F)F)cc1)O2 (stereo in doubt) [Compound 401]
- Emax (F508del; [3]): > 60%
- EC50 (F508del; Table 8): < 1000 nM
- Ent. A Max Activity (CFTR [1]; Table 8): +++ (+++ is >60%)
- EC50 (CFTR [1]; Table 8): < 1000 nM

Compound: Cc1cccc(C)c1-c1cc2nc(n1)NS(=O)(=O)c1cccc(n1)C(=O)N[C@H](CC1CCCCC1)CO2 [Compound 411]
- Emax (F508del; [3]): > 60%
- EC50 (F508del; Table 8): < 1000 nM
- Ent. A Max Activity (CFTR [1]; Table 8): +++ (+++ is >60%)
- EC50 (CFTR [1]; Table 8): < 1000 nM

Compound: Cc1cccc(C)c1-c1cc2nc(n1)NS(=O)(=O)c1cccc(c1)C(=O)N[C@H]1CC[C@H](CC1)O2 [Compound 198]
- Emax (F508del; heading: 3T3 Max Activity, NIH 3T3 cells, F508del correction): > 60%
- EC50 (F508del; [4]): < 1000 nM
- Ent. A Max Activity (CFTR [1]; Enteroid Assay A): +++ (+++ is >600%)
- EC50 (CFTR [1]; Enteroid Assay A): 1000 to 3000 nM

Compound: Cc1cccc(C)c1-c1cc2nc(n1)NS(=O)(=O)c1cccc(c1)C(=O)NCC(c1ccc(C3(C(F)(F)F)CC3)cc1)O2 (racemic) [Compound 9, 6-(2,6-dimethylphenyl)-10-{4-[1-(trifluoromethyl)cyclopropyl]phenyl}-9-oxa-2λ^6-thia-3,5,12,19-tetraazatricyclo[12.3.1.14,8]nonadeca-1(18),4(19),5,7,14,16-hexaene-2,2,13-trione]
- Emax (F508del; [3]): > 60%
- EC50 (F508del; Table 8): < 1000 nM
- Ent. A Max Activity (CFTR [1]; Table 8): +++ (+++ is >60%)
- EC50 (CFTR [1]; Table 8): < 1000 nM

Compound: Cc1ccccc1-c1cc2nc(n1)NS(=O)(=O)c1cccc(c1)C(=O)N[C@H](CC1CCCCC1)CO2 [Compound 316]
- EC50 (F508del; [4]): < 1000 nM
- Ent. A Max Activity (CFTR [1]; Enteroid Assay A): +++ (+++ is >600%)
- EC50 (CFTR [1]; Enteroid Assay A): < 1000 nM

Compound: Cc1cccc(C)c1-c1cc2nc(n1)NS(=O)(=O)c1cccc(c1)C(=O)N[C@H](C(C)(C)C)CO2 [Compound 361]
- Emax (F508del; [3]): > 60%
- EC50 (F508del; Table 8): < 1000 nM
- Ent. A Max Activity (CFTR [1]; Table 8): +++ (+++ is >60%)
- EC50 (CFTR [1]; Table 8): < 1000 nM

Compound: Cc1cccc(C)c1-c1cc2nc(n1)NS(=O)(=O)c1cccc(c1)C(=O)NC[C@H](C1CCCCC1)O2 (stereo in doubt) [Compound 270]
- Emax (F508del; [3]): > 60%
- EC50 (F508del; Table 8): < 1000 nM
- Ent. A Max Activity (CFTR [1]; Table 8): + (+ is <30%)

Compound: Cc1cccc(C)c1-c1cc2nc(n1)NS(=O)(=O)c1cccc(c1)C(=O)N[C@H](CCC(C)(C)C)CO2 (single isomer, unassigned) [Compound 47]
- Emax (F508del; [3]): > 60%
- EC50 (F508del; Table 8): < 1000 nM
- Ent. A Max Activity (CFTR [1]; Table 8): +++ (+++ is >60%)
- EC50 (CFTR [1]; Table 8): < 1000 nM

Compound: Cc1cccc(C)c1-c1cc2nc(n1)NS(=O)(=O)c1cccc(c1)C(=O)NC[C@@H](c1ccc(C(C)(C)C)cc1)O2 (single isomer, unassigned) [Compound 5]
- Emax (F508del; [3]): > 60%
- EC50 (F508del; Table 8): < 1000 nM
- Ent. A Max Activity (CFTR [1]; Table 8): +++ (+++ is >60%)
- EC50 (CFTR [1]; Table 8): < 1000 nM
- Ent. B Max Activity (CFTR [2]; Table 8): +++ (+++ is >60%)
- EC50 (CFTR [2]; Table 8): < 1000 nM

Compound: Cc1cccc(F)c1-c1cc2nc(n1)NS(=O)(=O)c1cccc(c1)C(=O)N[C@H](CC(C)C)CO2 [Compound 98, (11R)-6-(2-Fluoro-6-methylphenyl)-11-(2-methylpropyl)-9-oxa-2λ^6-thia-3,5,12,19-tetraazatricyclo[12.3.1.14,8]nonadeca-1(17),4,6,8(19),14(18),15-hexaene-2,2,13-trione]
- Emax (F508del; [3]): > 60%
- EC50 (F508del; Table 8): < 1000 nM
- Ent. A Max Activity (CFTR [1]; Table 8): +++ (+++ is >60%)
- EC50 (CFTR [1]; Table 8): < 1000 nM
